7 compounds from ChEMBL document CHEMBL5465560, “Selectivity Literature for EUbOPEN Chemogenomic Library” (2024) can be followed below.

SMILES strings stand for the structures.

The target in assay [1] is Death-associated protein kinase 3 (Homo sapiens) (UniProt O43293). Description: Selectivity interaction (Ambit KINOMEscan and KiNATiv profiling in Jurkat cells) EUB0000090b DAPK3. Type of assay: cell-based. The conditions noted are these: at 1 µM.
In assay [2] the test system is Phosphatidylinositol 4,5-bisphosphate 3-kinase catalytic subunit alpha isoform (Homo sapiens), P42336 [M1043I]. Kind of assay: (§1) Selectivity interaction (KinomeScan (DiscoverX)) EUB0000045b PIK3CA.
Sequence of Phosphatidylinositol 4,5-bisphosphate 3-kinase catalytic subunit alpha isoform (Homo sapiens), P42336 [M1043I] (P42336 whole entry M1043I, canonical isoform): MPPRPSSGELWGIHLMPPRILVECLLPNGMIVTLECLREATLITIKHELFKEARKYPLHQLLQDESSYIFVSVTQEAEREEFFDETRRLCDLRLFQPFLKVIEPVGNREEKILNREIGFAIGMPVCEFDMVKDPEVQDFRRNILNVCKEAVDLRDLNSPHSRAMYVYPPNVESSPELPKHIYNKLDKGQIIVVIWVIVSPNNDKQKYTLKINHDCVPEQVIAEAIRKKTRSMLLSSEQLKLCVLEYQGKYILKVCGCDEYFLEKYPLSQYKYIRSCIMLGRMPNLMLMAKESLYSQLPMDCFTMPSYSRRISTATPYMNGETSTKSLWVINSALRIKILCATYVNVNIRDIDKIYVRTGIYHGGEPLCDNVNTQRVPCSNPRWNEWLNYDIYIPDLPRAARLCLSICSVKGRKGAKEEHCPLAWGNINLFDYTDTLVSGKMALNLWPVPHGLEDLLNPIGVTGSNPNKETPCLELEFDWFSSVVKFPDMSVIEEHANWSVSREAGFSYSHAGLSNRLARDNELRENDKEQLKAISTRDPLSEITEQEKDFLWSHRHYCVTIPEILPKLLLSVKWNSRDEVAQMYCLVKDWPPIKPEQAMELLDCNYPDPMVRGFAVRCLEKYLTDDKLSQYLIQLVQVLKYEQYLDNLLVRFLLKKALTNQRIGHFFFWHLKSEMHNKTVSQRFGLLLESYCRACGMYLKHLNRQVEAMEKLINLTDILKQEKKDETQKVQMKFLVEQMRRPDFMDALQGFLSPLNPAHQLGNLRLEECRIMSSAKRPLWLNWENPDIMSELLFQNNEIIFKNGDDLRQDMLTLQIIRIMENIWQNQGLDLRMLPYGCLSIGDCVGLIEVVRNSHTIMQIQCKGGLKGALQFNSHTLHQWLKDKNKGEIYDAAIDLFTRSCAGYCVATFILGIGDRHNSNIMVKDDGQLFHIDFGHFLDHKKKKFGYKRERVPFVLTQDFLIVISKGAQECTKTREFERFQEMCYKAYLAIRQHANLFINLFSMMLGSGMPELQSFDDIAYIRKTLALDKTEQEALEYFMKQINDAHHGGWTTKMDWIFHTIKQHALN
Assay [3] addresses Phosphatidylinositol 4,5-bisphosphate 3-kinase catalytic subunit alpha isoform (Homo sapiens) (UniProt P42336). Described as §1.
The subject of assay [4] is Phosphatidylinositol 4,5-bisphosphate 3-kinase catalytic subunit alpha isoform (Homo sapiens), P42336 [Q546K]. The description is as §1.
Assay [5] relates to Phosphatidylinositol 4,5-bisphosphate 3-kinase catalytic subunit alpha isoform (Homo sapiens), P42336 [E542K]. Described as §1.
Assay [6] concerns Phosphatidylinositol 4,5-bisphosphate 3-kinase catalytic subunit alpha isoform (Homo sapiens), P42336 [E545A]. The assay is described as §1.
Assay [7] concerns Phosphatidylinositol 4,5-bisphosphate 3-kinase catalytic subunit alpha isoform (Homo sapiens), P42336 [C420R]. Described as §1.
Assay [8] concerns Phosphatidylinositol 4,5-bisphosphate 3-kinase catalytic subunit alpha isoform (Homo sapiens), P42336 [H1047L]. The assay is described as §1.
The test system of assay [9] is Phosphatidylinositol 4,5-bisphosphate 3-kinase catalytic subunit alpha isoform (Homo sapiens), P42336 [H1047Y]. The description is as §1.
Sequence of Phosphatidylinositol 4,5-bisphosphate 3-kinase catalytic subunit alpha isoform (Homo sapiens), P42336 [H1047Y] (P42336 whole entry H1047Y, canonical isoform): as the sequence (P42336 whole entry M1043I, canonical isoform) above, with I1043M, H1047Y counted along it
For assay [10], the system named is Phosphatidylinositol 4,5-bisphosphate 3-kinase catalytic subunit alpha isoform (Homo sapiens), P42336 [E545K]. The description is as §1.
For assay [11], the system named is Phosphatidylinositol 4,5-bisphosphate 3-kinase catalytic subunit alpha isoform (Homo sapiens), P42336 [I800L]. The description is as §1.
Sequence of Phosphatidylinositol 4,5-bisphosphate 3-kinase catalytic subunit alpha isoform (Homo sapiens), P42336 [I800L] (P42336 whole entry I800L, canonical isoform): as the sequence (P42336 whole entry M1043I, canonical isoform) above, with I800L, I1043M counted along it
The target of assay [12] is Serine/threonine-protein kinase 26 (Homo sapiens, UniProt Q9P289). Description: Selectivity interaction (KinomeScan (DiscoverX)) EUB0000666a STK26. The conditions noted are these: at 10 µM.
Sequence of Serine/threonine-protein kinase 26 (Q9P289 2-416 limits assumed): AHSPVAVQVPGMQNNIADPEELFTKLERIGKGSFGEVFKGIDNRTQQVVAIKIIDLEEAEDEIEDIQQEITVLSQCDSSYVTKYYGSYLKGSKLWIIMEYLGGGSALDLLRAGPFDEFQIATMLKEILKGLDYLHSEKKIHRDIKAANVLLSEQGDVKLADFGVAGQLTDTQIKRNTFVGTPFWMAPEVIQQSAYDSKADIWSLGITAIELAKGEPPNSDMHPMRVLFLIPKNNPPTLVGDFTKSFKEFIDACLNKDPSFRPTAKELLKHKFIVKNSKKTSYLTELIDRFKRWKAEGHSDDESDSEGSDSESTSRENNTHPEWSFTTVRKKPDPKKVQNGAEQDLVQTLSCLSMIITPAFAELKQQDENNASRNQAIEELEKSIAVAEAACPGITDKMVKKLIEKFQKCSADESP
Assay [13] deals with T1, Homeodomain-interacting protein kinase 4 (Homo sapiens) (UniProt Q8NE63).
T1 sequence (whole entry): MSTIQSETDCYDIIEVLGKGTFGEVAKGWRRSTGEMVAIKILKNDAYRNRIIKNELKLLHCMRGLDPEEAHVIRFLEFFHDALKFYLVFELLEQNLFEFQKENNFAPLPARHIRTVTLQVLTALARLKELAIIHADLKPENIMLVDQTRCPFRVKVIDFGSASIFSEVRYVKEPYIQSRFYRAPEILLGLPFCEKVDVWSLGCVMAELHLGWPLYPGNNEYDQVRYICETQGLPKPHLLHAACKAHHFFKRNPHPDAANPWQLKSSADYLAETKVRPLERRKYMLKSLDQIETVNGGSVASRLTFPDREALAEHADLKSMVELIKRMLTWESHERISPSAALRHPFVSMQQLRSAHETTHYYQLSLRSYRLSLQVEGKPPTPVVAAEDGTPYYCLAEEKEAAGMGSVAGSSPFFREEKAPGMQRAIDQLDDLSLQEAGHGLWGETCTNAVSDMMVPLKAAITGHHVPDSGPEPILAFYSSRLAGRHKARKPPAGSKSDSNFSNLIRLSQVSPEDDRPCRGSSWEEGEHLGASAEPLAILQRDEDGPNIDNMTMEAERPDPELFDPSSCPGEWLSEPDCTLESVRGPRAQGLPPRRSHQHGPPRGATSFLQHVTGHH
Description: Selectivity interaction (KinomeScan (DiscoverX)) EUB0000607a HIPK4. The following applies: at 10 µM.

Assay [14] addresses T2, Cyclin-dependent kinase 11A (Homo sapiens) (UniProt Q9UQ88).
T2 sequence (whole entry): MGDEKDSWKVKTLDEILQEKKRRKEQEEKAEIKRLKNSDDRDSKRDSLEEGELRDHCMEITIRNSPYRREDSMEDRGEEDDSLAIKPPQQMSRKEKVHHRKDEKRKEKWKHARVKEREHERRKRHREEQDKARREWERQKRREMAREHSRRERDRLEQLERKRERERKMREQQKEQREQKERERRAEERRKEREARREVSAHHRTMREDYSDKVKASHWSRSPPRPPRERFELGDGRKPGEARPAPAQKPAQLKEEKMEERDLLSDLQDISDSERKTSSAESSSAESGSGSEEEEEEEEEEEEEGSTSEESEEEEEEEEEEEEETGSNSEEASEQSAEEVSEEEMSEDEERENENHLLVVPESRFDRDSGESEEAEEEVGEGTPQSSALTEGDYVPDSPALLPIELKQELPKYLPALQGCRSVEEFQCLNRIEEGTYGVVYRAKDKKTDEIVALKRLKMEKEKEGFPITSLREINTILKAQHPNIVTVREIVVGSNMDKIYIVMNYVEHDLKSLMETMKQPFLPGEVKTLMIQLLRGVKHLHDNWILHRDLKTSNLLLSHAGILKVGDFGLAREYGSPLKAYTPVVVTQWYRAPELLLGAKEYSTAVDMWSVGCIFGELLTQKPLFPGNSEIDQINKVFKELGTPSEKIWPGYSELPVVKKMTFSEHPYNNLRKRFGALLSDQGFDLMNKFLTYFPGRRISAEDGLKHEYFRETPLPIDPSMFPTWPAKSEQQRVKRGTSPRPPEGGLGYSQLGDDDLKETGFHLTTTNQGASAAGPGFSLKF
Kind of assay: Selectivity interaction (ActivX KiNativ screen (kinase selectivity in THP-1 cell lysates)) EUB0000639a CDK11A. Type of assay: subcellular. The following applies: lysate, at 5 µM.

The target of assay [15] is Citron Rho-interacting kinase (Homo sapiens) (UniProt O14578). Description: Selectivity interaction (KinomeScan (DiscoverX)) EUB0000229b CIT. The following applies: at 10 µM.
Assay [16] deals with Cyclin-dependent kinase-like 1 (Homo sapiens) (UniProt Q00532). Kind of assay: Selectivity interaction (Kinase panel (DSF assay)) EUB0001559a CDKL1.
Sequence of Cyclin-dependent kinase-like 1 (Homo sapiens) (Q00532 whole entry): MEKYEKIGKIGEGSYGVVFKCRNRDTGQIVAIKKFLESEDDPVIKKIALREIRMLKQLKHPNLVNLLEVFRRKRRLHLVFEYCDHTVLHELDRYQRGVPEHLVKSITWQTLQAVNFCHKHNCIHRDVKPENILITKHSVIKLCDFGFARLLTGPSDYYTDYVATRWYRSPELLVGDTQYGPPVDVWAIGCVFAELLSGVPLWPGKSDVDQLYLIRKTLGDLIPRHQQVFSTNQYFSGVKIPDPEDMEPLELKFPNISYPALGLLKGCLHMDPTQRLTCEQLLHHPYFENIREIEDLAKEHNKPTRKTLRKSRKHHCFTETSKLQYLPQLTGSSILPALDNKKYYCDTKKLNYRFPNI

Sequence of Phosphatidylinositol 4,5-bisphosphate 3-kinase catalytic subunit alpha isoform (Homo sapiens) (P42336 whole entry, canonical isoform): as the sequence (P42336 whole entry M1043I, canonical isoform) above, with I1043M counted along it

`CN(C)C/C=C/C(=O)Nc1ccc(C(=O)N2CCCC(Nc3ncc(Cl)c(-c4c[nH]c5ccccc45)n3)C2)cc1` (stereo unspecified): the % of control in assay [1] is 100%.
As for `C=CC(=O)Nc1cc(-n2c(=O)ccc3cnc4ccc(-c5ccc(NS(C)(=O)=O)cc5)cc4c32)ccc1C`, the % of control in assay [2] (at 1 µM) turned out to be 100%; in assay [2] (at 10 µM) it was 24%; in [3] (at 1 µM) it was 68%; in [3] (at 10 µM) it was 9.9%; in assay [4] (at 1 µM), 100%; in [4] (at 10 µM), 35%. Moreover, the % of control came to 100% in assay [5] (at 1 µM); 23% in assay [5] (at 10 µM); 90% in [6] (at 1 µM); 17% in [6] (at 10 µM); 100% in [7] (at 1 µM); 32% in assay [7] (at 10 µM). Further, the % of control in assay [8] (at 1 µM) was determined as 100%; in [8] (at 10 µM), 86%; in assay [9] (at 1 µM), 88%; in assay [9] (at 10 µM) it was 26%; in assay [10] (at 1 µM), 100%; in [10] (at 10 µM) it was 74%. Besides, the values for the % of control in assay [11] (at 1 µM) and in [11] (at 10 µM) were 46% and 7.6%, respectively.
With `O=C(NOC[C@H](O)CO)c1ccc(F)c(F)c1Nc1ccc(I)cc1F`, in [12], the % of control turned out to be 77%.
In [13], `CNC(=O)Nc1ccc(-c2nc(N3CC4CCC(C3)O4)c3cnn(C4CCC5(CC4)OCCO5)c3n2)cc1` had a % of control of 100%.
As for `CC[C@@H]1[C@H](F)C(=O)N[C@@H]1COc1nccc2cc(C(N)=O)c(OC)cc12` [ZIMLOVISERTIB], the % of inhibition in [14] is -20.8%.
In [15], `COc1cc(N(C)c2ccnc3ccc(C(F)(F)F)cc23)cc(OC)c1OC` had a % binding of 93%.
In [16], `CN(C(=O)c1cnn2cccnc12)c1cc2c(cc1N1CCOCC1)C(=O)N(C[C@@H](F)C(C)(C)O)C2` displayed a dTM of 1.2 K.
